According to patent US20020155443A1, “Metal binding DNA interactive compounds” (priority 2000, published 2002):

How the values were obtained:
Experiment in all cases: DTP Human Tumor Cell Line Screen, sulforhodamine B assay
Assay type in all cases: cell-based
U251 = conditions: 48 h
Experimental: (§1) The growth inhibitory activity of propargylic sulfone 3.2 against a wide range of human cancer cell lines was determined calorimetrically with sulforhodamine B assay conducted by the National Cancer Institute of the National Institutes of Health.
(§2) The in vitro cytotoxicity of compounds 2.47, 2.48 and 3.2 were investigated using the DTP Human Tumor Cell Line Screen. The concept, rationale and history of development of the DTP Human Tumor Cell Line Screen were described by Boyd (1993;1997)^8.4, 8.6 and Boyd and Paull (1995)^8.5. Further technical details of the NCI screening procedures were described (Monks, et. al.)^8.2 as were the origins and processing of the cell lines (Alley, et. al., Shoemaker, et. al., Stinson, et. al.). Briefly, cell suspensions that were diluted according to the particular cell type and the expected target cell density (5000-40,000 cells per well based on cell growth characteristics) were added by pipet (100 μL) into 96-well microtiter plates. Inoculates were allowed a preincubation period of 24 h at 37° C. for stabilization. Dilutions at twice the intended test concentration were added at time zero in 100-μL aliquots to the microtiter plate wells. Usually, test compounds were evaluated at five 10-fold dilutions. In routine testing, the highest well concentration is 10E-4 M, but for the standard agents the highest well concentration used depended on the agent. Incubations lasted for 48 h in 5% CO2 atmosphere and 100% humidity. The cells were assayed by using the sulforhodamine B assay (Rubinstein, et. al., Skehan, et. al.). A plate reader was used to read the optical densities, and a microcomputer processed the optical densities into the special concentration parameters.

PC-3 = conditions: Prostate Cancer, 48 h
Experimental: as §1, §2

SF-539 = conditions: CNS Cancer, 48 h
Experimental: as §1, §2

SK-MEL-28 = conditions: Melanoma, 48 h
Experimental: as §1, §2

SNB-19 = conditions: CNS Cancer, 48 h
Experimental: as §1, §2

OVCAR-5 = conditions: Ovarian Cancer, 48 h
Experimental: as §1, §2

SF-268 = conditions: CNS Cancer, 48 h
Experimental: as §1, §2

NCI-H460 = conditions: Non-Small Cell Lung Cancer, 48 h
Experimental: as §1, §2

MALME-3M = conditions: Melanoma, 48 h
Experimental: as §1, §2

HOP-92 = conditions: Non-Small Cell Lung Cancer, 48 h
Experimental: as §1, §2

SF-295 = conditions: CNS Cancer, 48 h
Experimental: as §1, §2

786-0 = conditions: Renal Cancer, 48 h
Experimental: as §1, §2

HCC-2998 = conditions: Colon Cancer, 48 h
Experimental: as §1, §2

A498 = conditions: Renal Cancer, 48 h
Experimental: as §1, §2

RXF 393 = conditions: Renal Cancer, 48 h
Experimental: as §1, §2

SN12C = conditions: Renal Cancer, 48 h
Experimental: as §1, §2

TK-10 = conditions: Renal Cancer, 48 h
Experimental: as §1, §2

MDA-N = conditions: Breast Cancer, 48 h
Experimental: as §1, §2

COLO 205 = conditions: Colon Cancer, 48 h
Experimental: as §1, §2

MDA-MB-435 = conditions: Breast Cancer, 48 h
Experimental: as §1, §2

SNB-75 = conditions: CNS Cancer, 48 h
Experimental: as §1, §2

A-549/ATCC = conditions: 48 h
Experimental: as §1, §2

OVCAR-4 = conditions: Ovarian Cancer, 48 h
Experimental: as §1, §2

HOP-62 = conditions: Non-Small Cell Lung Cancer, 48 h
Experimental: as §1, §2

UACC-62 = conditions: Melanoma, 48 h
Experimental: as §1, §2

LOX IMVI = conditions: Melanoma, 48 h
Experimental: as §1, §2

OVCAR-3 = conditions: Ovarian Cancer, 48 h
Experimental: as §1, §2

SK-MEL-2 = conditions: Melanoma, 48 h
Experimental: as §1, §2

CAKI-1 = conditions: Renal Cancer, 48 h
Experimental: as §1, §2

MCF7/ADR-RES = conditions: Breast Cancer, 48 h
Experimental: as §1, §2

IGROV1 = conditions: 48 h
Experimental: as §1, §2

NCI-H226 = conditions: Non-Small Cell Lung Cancer, 48 h
Experimental: as §1, §2

OVCAR-8 = conditions: Ovarian Cancer, 48 h
Experimental: as §1, §2

MCF7 = conditions: Breast Cancer, 48 h
Experimental: as §1, §2

UACC-257 = conditions: Melanoma, 48 h
Experimental: as §1, §2

NCI-H522 = conditions: Non-Small Cell Lung Cancer, 48 h
Experimental: as §1, §2

SW-620 = conditions: Colon Cancer, 48 h
Experimental: as §1, §2

EKVX = conditions: Non-Small Cell Lung Cancer, 48 h
Experimental: as §1, §2

HL-60 (TB) = conditions: Leukemia, 48 h
Experimental: as §1, §2

MOLT-4 = conditions: Leukemia, 48 h
Experimental: as §1, §2

DU-145 = conditions: Prostate Cancer, 48 h
Experimental: as §1, §2

For O=S1(=O)CC#CCOCCOCCOCCOCCOCCOCCOCC#CC1 [Compound 2.48], the IC50 (U251; CNS Cancer) was 18.3 µM, the IC50 (PC-3) was 43.4 µM and the IC50 (SF-539) was 26.2 µM. It also gave an IC50 (SK-MEL-28) of 17.9 µM, an IC50 (SNB-19) of 27.9 µM and an IC50 (OVCAR-5) of 18 µM. It also gave an IC50 (SF-268) of 30.5 µM, an IC50 (NCI-H460) of 38 µM and an IC50 (MALME-3M) of 14.6 µM. The IC50 (HOP-92) was 19.6 µM, the IC50 (SF-295) was 81.2 µM and the IC50 (786-0) was 18.4 µM. For the same compound, the IC50 (HCC-2998) was 17.7 µM, the IC50 (A498) was 54.7 µM and the IC50 (RXF 393) was 27 µM. For the same compound, the IC50 (SN12C) was 18.8 µM, the IC50 (TK-10) was 23 µM and the IC50 (MDA-N) was 18.9 µM. The IC50 (COLO 205) was 14.7 µM, the IC50 (MDA-MB-435) was 20.4 µM and the IC50 (SNB-75) was 32.6 µM. For the same compound, the IC50 (A-549/ATCC; Non-Small Cell Lung Cancer) was 61.7 µM, the IC50 (OVCAR-4) was 27.3 µM and the IC50 (HOP-62) was 21 µM. For the same compound, the IC50 (UACC-62) was 17.1 µM, the IC50 (LOX IMVI) was 19.9 µM and the IC50 (OVCAR-3) was 19.7 µM. For the same compound, the IC50 (SK-MEL-2) was 17.3 µM, the IC50 (CAKI-1) was 21.2 µM and the IC50 (MCF7/ADR-RES) was > 100 µM. The IC50 (IGROV1; Ovarian Cancer) was 44.6 µM, the IC50 (NCI-H226) was 86.9 µM and the IC50 (OVCAR-8) was 33.3 µM. The IC50 (MCF7) was 22 µM, the IC50 (UACC-257) was 21.2 µM and the IC50 (NCI-H522) was 10.6 µM. The IC50 (SW-620) was 14.3 µM, the IC50 (EKVX) was 20.9 µM and the IC50 (HL-60 (TB)) was 20.9 µM. The IC50 (MOLT-4) was 19.9 µM and the IC50 (DU-145) was > 100 µM.

In the case of O=C(OCC1COCCOCCOCCOCCO1)c1ccc(CS(=O)(=O)CC#CCO)cc1 (stereo not shown) [Compound 3.2], the IC50 (U251; Homo sapiens, U-251, CNS Cancer) is reported as 69 µM, the IC50 (PC-3; Homo sapiens) is reported as > 100 µM and the IC50 (SF-539; Homo sapiens) is reported as 46.8 µM. The IC50 (SK-MEL-28; Homo sapiens) was > 100 µM, the IC50 (SNB-19; Homo sapiens) was > 100 µM and the IC50 (OVCAR-5; Homo sapiens) was > 100 µM. The IC50 (SF-268; Homo sapiens) was > 100 µM, the IC50 (NCI-H460; Homo sapiens) was > 100 µM and the IC50 (MALME-3M; Homo sapiens) was > 100 µM. For the same compound, the IC50 (HOP-92; Homo sapiens) was 41.6 µM, the IC50 (SF-295; Homo sapiens) was > 100 µM and the IC50 (786-0; Homo sapiens) was 35.3 µM. For the same compound, the IC50 (HCC-2998; Homo sapiens) was > 100 µM, the IC50 (A498; Homo sapiens) was > 100 µM and the IC50 (RXF 393; Homo sapiens) was > 100 µM. For the same compound, the IC50 (SN12C; Homo sapiens) was 30.3 µM, the IC50 (TK-10; Homo sapiens) was > 100 µM and the IC50 (MDA-N; Homo sapiens) was 37.4 µM. For the same compound, the IC50 (COLO 205; Homo sapiens) was > 100 µM, the IC50 (MDA-MB-435; Homo sapiens) was > 100 µM and the IC50 (SNB-75; Homo sapiens) was > 100 µM. For the same compound, the IC50 (A-549/ATCC; Homo sapiens, A549, Non-Small Cell Lung Cancer) was > 100 µM, the IC50 (OVCAR-4; Homo sapiens) was > 100 µM and the IC50 (HOP-62; Homo sapiens) was > 100 µM. For the same compound, the IC50 (UACC-62; Homo sapiens) was 82.4 µM, the IC50 (LOX IMVI; Homo sapiens) was 54.3 µM and the IC50 (OVCAR-3; Homo sapiens) was > 100 µM. For the same compound, the IC50 (SK-MEL-2; Homo sapiens) was 98.7 µM, the IC50 (CAKI-1; Homo sapiens) was > 100 µM and the IC50 (MCF7/ADR-RES; Homo sapiens) was > 100 µM. The IC50 (IGROV1; Homo sapiens, IGROV-1, Ovarian Cancer) was > 100 µM, the IC50 (NCI-H226; Homo sapiens) was > 100 µM and the IC50 (OVCAR-8; Homo sapiens) was > 100 µM. The IC50 (MCF7; Homo sapiens) was > 100 µM, the IC50 (UACC-257; Homo sapiens) was > 100 µM and the IC50 (NCI-H522; Homo sapiens) was 18.8 µM. For the same compound, the IC50 (SW-620; Homo sapiens) was 67 µM, the IC50 (EKVX; Homo sapiens) was > 100 µM and the IC50 (HL-60 (TB); Homo sapiens) was > 100 µM. For the same compound, the IC50 (MOLT-4; Homo sapiens) was > 100 µM and the IC50 (DU-145; Homo sapiens) was > 100 µM.
